Laboratory results published in PMC9120017, “Inhibition mechanism of the chloride channel TMEM16A by the pore blocker 1PBC” (Nature Communications, 2022).
Where two headings read alike, the source gives them in different places.

Target: T1, mouse TMEM16A mutant Y514A (Mus musculus, UniProt Q8BHY3, Y514A)
T1 construct: expressed in transfected cells; host or cells: HEK293T
T1 sequence (Q8BHY3 1-960 Y514A): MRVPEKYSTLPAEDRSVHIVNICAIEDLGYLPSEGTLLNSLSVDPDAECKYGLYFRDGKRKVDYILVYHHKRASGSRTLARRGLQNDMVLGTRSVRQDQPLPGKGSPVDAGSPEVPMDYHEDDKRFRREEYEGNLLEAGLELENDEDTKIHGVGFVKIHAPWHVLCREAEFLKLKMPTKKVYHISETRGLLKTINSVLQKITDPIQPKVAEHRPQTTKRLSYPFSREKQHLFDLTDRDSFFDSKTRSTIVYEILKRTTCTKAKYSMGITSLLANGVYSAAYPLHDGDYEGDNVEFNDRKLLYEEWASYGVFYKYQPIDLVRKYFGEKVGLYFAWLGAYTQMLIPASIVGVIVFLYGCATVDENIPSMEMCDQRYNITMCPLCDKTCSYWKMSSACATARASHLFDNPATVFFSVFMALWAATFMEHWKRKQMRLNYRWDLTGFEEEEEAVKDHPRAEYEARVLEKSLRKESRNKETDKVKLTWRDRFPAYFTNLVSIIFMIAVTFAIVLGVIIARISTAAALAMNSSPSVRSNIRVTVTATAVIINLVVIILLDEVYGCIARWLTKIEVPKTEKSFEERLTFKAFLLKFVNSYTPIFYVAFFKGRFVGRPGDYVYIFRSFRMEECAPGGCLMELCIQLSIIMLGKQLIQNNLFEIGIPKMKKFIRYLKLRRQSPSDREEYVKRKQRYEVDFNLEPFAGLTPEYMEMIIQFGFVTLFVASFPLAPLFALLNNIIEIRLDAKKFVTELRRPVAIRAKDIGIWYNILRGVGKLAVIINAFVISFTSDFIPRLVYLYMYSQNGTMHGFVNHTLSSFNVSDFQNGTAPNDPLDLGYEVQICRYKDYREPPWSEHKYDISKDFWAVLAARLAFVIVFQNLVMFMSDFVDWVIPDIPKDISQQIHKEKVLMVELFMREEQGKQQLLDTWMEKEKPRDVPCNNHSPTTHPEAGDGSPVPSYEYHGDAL
Experiment: Inside-out patch recording of 1PBC block, mutant Y514A
Format: cell-based
Conditions: for remaining activity at 10 µM: 1PBC 10; for remaining activity at 10 µM / remaining activity at 30 µM / remaining activity at 100 µM: read-out: fraction of unblocked current; for remaining activity at 30 µM: 1PBC 30; for remaining activity at 100 µM: 1PBC 100
Experimental: HEK293T cells (ATCC CRL-1573) were maintained in Dulbecco’s modified Eagle’s medium (DMEM; Sigma-Aldrich) supplemented with 10 U ml^−1 penicillin, 0.1 mg ml^−1 streptomycin (Sigma-Aldrich), 2 mM L-glutamine (Sigma-Aldrich), and 10% FBS (Sigma-Aldrich) in a humidified atmosphere containing 5% CO2 at 37 °C. HEK293S GnTI^− cells (ATCC CRL-3022) were maintained in HyClone HyCell TransFx-H medium (GE Healthcare) supplemented with 10 U ml^−1 penicillin, 0.1 mg ml^−1 streptomycin, 4 mM L-glutamine, 0.15% poloxamer 188 (Sigma-Aldrich), and 1% FBS in an atmosphere containing 5% CO2 at 185 rpm at 37 °C. The ac splice variant of mouse TMEM16A (UniProt ID: Q8BHY3), mouse TMEM16B (UniProt ID: Q8CFW1), or mouse TMEM16F (UniProt ID: Q6P9J9) bearing a 3C cleavage site, a Venus YFP, a Myc tag, and a Streptavidin-binding peptide (SBP) downstream of the open reading frame in a modified pcDNA3.1 vector (Invitrogen) were used as described previously[21],[31]. Mutations were introduced using a modified QuikChange method[58] and were verified by sequencing.
HEK293T cells were transfected with 3–4 μg DNA per 6 cm Petri dish using the calcium phosphate co-precipitation method and were used within 24–96 h after transfection. Recordings were performed on inside-out patches excised from HEK293T cells expressing the construct of interest. Patch pipettes were pulled from borosilicate glass capillaries (O.D. 1.5 mm, I.D. 0.86 mm, Sutter Instrument) and were fire-polished with a microforge (Narishige) before use. Pipette resistance was typically 3–8 MΩ when filled with the recording solutions detailed below. Seal resistance was typically 4 GΩ or higher. Voltage-clamp recordings were made using Axopatch 200B, Digidata 1550, and Clampex 10.7 (Molecular Devices). Analog signals were filtered with the in-built 4-pole Bessel filter at 10 kHz and were digitized at 20 kHz. Solution exchange was achieved using a gravity-fed system through a theta glass pipette mounted on an ultra-fast piezo-driven stepper (Siskiyou). […] All recordings were performed at 20 °C.
A symmetrical ionic condition was used throughout. Stock solution with Ca^2+-EGTA contained 150 mM NaCl, 5.99 mM Ca(OH)2, 5 mM EGTA, and 10 mM HEPES at pH 7.40. Stock solution with EGTA contained 150 mM NaCl, 5 mM EGTA, and 10 mM HEPES at pH 7.40. Free Ca^2+ concentrations were adjusted by mixing the stock solutions at the required ratios calculated using the WEBMAXC program (http://web.stanford.edu/~cpatton/webmaxcS.htm). Patch pipettes were filled with the stock solution with Ca^2+-EGTA, which has a free Ca^2+ concentration of 1 mM. 1PBC (ChemBridge) stock was reconstituted in anhydrous DMSO (Sigma-Aldrich) at 100 mM and stored at −20 °C. Working solutions with 1PBC were prepared by serial dilution. Unless otherwise stated, experiments were performed at a saturating Ca^2+ concentration as shown in Supplementary Table 1 and the primary data were corrected for current rundown as described previously[21],[25].
Concentration-response relations, obtained from the ratio of the I-V plots before and after the application of the blocker, were fitted to the Hill equation,1 I/Imax=1/1+IC50/[blocker]^h where I/Imax is the normalized current responses, IC50 defines the concentration at which inhibition is at its half-maximum, and h is the Hill coefficient.

## N#Cc1c(C(F)(F)F)cc(O)n2c1nc1ccccc12 [1PBC]
0 mV, 2 µM Ca2+
  IC50: 22.8 µM
0 mV
  remaining activity at 10 µM: 71.6%
  remaining activity at 30 µM: 41%
  remaining activity at 100 µM: 19.2%
20 mV
  remaining activity at 10 µM: 67.7%
  remaining activity at 30 µM: 37.8%
  remaining activity at 100 µM: 15.9%
40 mV
  remaining activity at 10 µM: 65.8%
  remaining activity at 30 µM: 34.4%
  remaining activity at 100 µM: 14.2%
60 mV
  remaining activity at 10 µM: 59.8%
  remaining activity at 30 µM: 31.9%
  remaining activity at 100 µM: 13.7%
80 mV
  remaining activity at 10 µM: 58.2%
  remaining activity at 30 µM: 28.9%
  remaining activity at 100 µM: 12.7%
  log-fold IC50 (change of mutant vs WT): 0.6902
100 mV
  remaining activity at 10 µM: 57.1%
  remaining activity at 30 µM: 27.6%
  remaining activity at 100 µM: 11.3%
120 mV
  remaining activity at 10 µM: 53.3%
  remaining activity at 30 µM: 26.5%
  remaining activity at 100 µM: 11.7%
140 mV
  remaining activity at 10 µM: 53.7%
  remaining activity at 30 µM: 26.4%
  remaining activity at 100 µM: 12.2%
-20 mV
  remaining activity at 10 µM: 75.5%
  remaining activity at 30 µM: 44.3%
  remaining activity at 100 µM: 22.6%
-40 mV
  remaining activity at 10 µM: 78.8%
  remaining activity at 30 µM: 50%
  remaining activity at 100 µM: 25.4%
-60 mV
  remaining activity at 10 µM: 81.3%
  remaining activity at 30 µM: 56.5%
  remaining activity at 100 µM: 29.3%
-80 mV
  remaining activity at 10 µM: 82.9%
  remaining activity at 30 µM: 60.4%
  remaining activity at 100 µM: 32.8%
-100 mV
  remaining activity at 10 µM: 85.5%
  remaining activity at 30 µM: 64.5%
  remaining activity at 100 µM: 38%
-120 mV
  remaining activity at 10 µM: 87.1%
  remaining activity at 30 µM: 67.9%
  remaining activity at 100 µM: 42.9%
-140 mV
  remaining activity at 10 µM: 86.2%
  remaining activity at 30 µM: 70.2%
  remaining activity at 100 µM: 48.1%
20 mV, 2 µM Ca2+
  IC50: 19.4 µM
40 mV, 2 µM Ca2+
  IC50: 17.3 µM
60 mV, 2 µM Ca2+
  IC50: 14.6 µM
80 mV, 2 µM Ca2+
  IC50: 13.3 µM
100 mV, 2 µM Ca2+
  IC50: 12.5 µM
120 mV, 2 µM Ca2+
  IC50: 11.3 µM
140 mV, 2 µM Ca2+
  IC50: 11.5 µM
-20 mV, 2 µM Ca2+
  IC50: 26.9 µM
-40 mV, 2 µM Ca2+
  IC50: 32.7 µM
-60 mV, 2 µM Ca2+
  IC50: 40.6 µM
-80 mV, 2 µM Ca2+
  IC50: 47.4 µM
-100 mV, 2 µM Ca2+
  IC50: 58 µM
-120 mV, 2 µM Ca2+
  IC50: 69.6 µM
-140 mV, 2 µM Ca2+
  IC50: 81 µM
Y514A, V 0 mV
  IC50: 22.8 µM
Y514A, V 20 mV
  IC50: 19.4 µM
Y514A, V 40 mV
  IC50: 17.3 µM
Y514A, V 60 mV
  IC50: 14.6 µM
Y514A, V 80 mV
  IC50: 13.3 µM
Y514A, V 100 mV
  IC50: 12.5 µM
Y514A, V 120 mV
  IC50: 11.3 µM
Y514A, V 140 mV
  IC50: 11.5 µM
Y514A, V -20 mV
  IC50: 26.9 µM
Y514A, V -40 mV
  IC50: 32.7 µM
Y514A, V -60 mV
  IC50: 40.6 µM
Y514A, V -80 mV
  IC50: 47.4 µM
Y514A, V -100 mV
  IC50: 58 µM
Y514A, V -120 mV
  IC50: 69.6 µM
Y514A, V -140 mV
  IC50: 81 µM
